One assay has as its target T1, PLK1 (Homo sapiens, UniProt P53350).
T1 construct: endogenous in cells; host or cells: HeLa cell lysate
The assay is described as follows: Cellular thermal shift assay (CeTSA / ITDRF-CeTSA) in HeLa cell lysates. In kind it is binding. The protocol: Two million HeLa cells were assessed for viability using Trypan blue and aliquoted into PCR tubes for lysate preparation and CeTSA. Aggregation temperature (Tagg) was determined for PLK1 PBD with a Biorad Tetrad gradient maker, using a final concentration of 1mM or 0.5mM for Poloppin or Poloppin-II, respectively, in 5% DMSO ([Jafari et al., 2014]). Samples were assessed using PLK1 antibodies (Invitrogen 33-1700) and GAPDH (Santa Cruz sc137179) and Li-Cor antibody (926-32252). Quantification was done with Odyssey Li-Cor technology.

In another assay the test system is human cell lines. The experiment in a line: Dose-dependent mitotic arrest (Figure 1F). In kind it is cell-based. Here is the method: Cells were plated at 10 000/well in 96-well plates and incubated overnight. The following day compound stocks in DMSO were diluted in medium then added to cells with a maximum final DMSO concentration on cells of 0.2%. Cells were incubated with compound for 24 h then fixed in 3.7% formaldeyde. Cells were permeabilised with 0.1% Triton X-100 then incubated with anti-phospho-histone H3 (Ser10) antibody (Abcam ab5176). The cells were washed with PBS then incubated with AlexaFluor 488 labelled goat anti-rabbit IgG (Invitrogen A11034) in the presence of 4ug/ml Hoechst 33342 (Invitrogen H3570). Cells were washed in PBS then imaged on an Arrayscan VTi HCS instrument (Thermo Fisher) using the Target Activation V4 Bioapplication. A user-defined threshold was applied to identify mitotic cells based on the intensity of phospho-histone H3 staining.

In a further assay the test system is HCT116 wt. The assay is described as follows: Viability of drug-sensitive parental HCT116 cells. As to conditions: Homo sapiens, HCT-116, 72 h. In kind it is cell-based. Here is the method: Viability is represented as percentage survival normalised to DMSO control. […] PCR reactions were carried out using Amplitaq Gold polymerase (Applied Biosystems N8080241) with a 25-cycle programme. […] Prepared samples were submitted for next generation sequencing using MiSeq Nano run with Nextera XT library preparation. Sequencing and subsequent bioinformatics were performed by Cambridge Genomic Services (University Of Cambridge).

The subject of a further assay is Panc 05.04. The assay is described as follows: Cell viability (SRB), Panc 05.04. It is filed as cell-based. As to conditions: Homo sapiens, Panc 05.04, 72 h. The protocol:
SW48 Parental, SW48 G12D, Panc-1, HPAF-II, Panc 02.03 and Panc 05.04 cell lines were seeded overnight at 5000 cells per well in a 96 well plate in recommended media (ATCC). Compounds were added the following day and viability was measured at 72h using the sulforhodamine B (SRB) colorimetric assay as follows. Cells were fixed by replacing media with 1% v/v Trichloroacetic Acid (TCA) (Sigma-Aldrich) at 4°C and incubated for 1h also at 4°C. Wells were washed thoroughly with copious amounts of deionised water before staining with Sulforhodamine B (SRB) (Sigma-Aldrich) solution (0.057% w/v in 1% v/v Acetic Acid (VWR)) for 30 min. Stain was aspirated and wells washed with several changes of 1% v/v Acetic Acid until unbound stain was removed, before air-drying. Bound stain was solubilized with 100μl / well 10mM Tris (pH 8.0) (Trizma Base (121.1) Sigma-Aldrich) with agitation for 10 min. Fluorescence intensity was recorded at Ex540nm / Em590nm using a BMG Pherastar Plus plate reader ([Vichai and Kirtikara, 2006]).
Pancreatic organoids were extracted and cultured as detailed above ([Boj et al., 2015]). In brief, pancreatic organoids were seeded at 600 cells per well in a 96 well plate and allowed to grow for 7 days with media replenishment on the 3rd day. Full-grown organoids were then treated with compounds for 72h and viability determined using CellTitre Glo 3D assay (Promega). For viability assays with c-MET siRNA, cells were reverse transfected in a 6 cm dish using Dharmafect 1 (GE Dharmacon) per manufacturer’s instructions. On the following day, cells were trypsinised and plated onto 96 well plates or 6 well plates. The 96 well plates were treated with a dose range of compounds or DMSO, and viability was determined via SRB colorimetric assay. […]
Cells were reverse-transfected with 50nM (SW48 parental, SW48 KRAS G12D and Panc-1) or 25nM (HeLa Flp-In T-REx parental cells) siRNA using Dharmafect (GE Dharmacon) as manufacturer’s recommendations. […] Viability was assessed after 72 hrs, with the SRB colorimetric assay. Knockdown efficiencies were determined by Western blot or RT-qPCR. […]

The target of a further assay is PLK1 PBD (Homo sapiens, UniProt P53350). The assay is described as follows: Isothermal titration calorimetry. In kind it is binding. The arrangement: In all titrations, PBDaa345-603 protein was used at 25 μM; GST (N, cleaved yes); made in house; host or cells: E. coli C41. As to conditions: ITC, 20 °C. The protocol: In all titrations, PBDaa345-603 protein was used at 25 μM and buffered in HEPES (50 mM, pH 7.4), NaCl (200 mM), and DTT (1mM). Protein was diluted into buffer with DMSO at 5% (v/v). Poloppin was prepared by diluting from DMSO stock into the same buffer containing DMSO at 5% (v/v). Great care was taken to match the concentration of DMSO in the ligand and protein samples as closely as possible. In a typical experiment, protein (25 μM) was loaded in the sample cell, and a total of 20 injections of 8μL were made at 2 min intervals from a 200 μL syringe rotating at 1000 rpm and loaded with ligand solution (0.5 mM). […] The thermodynamic parameters were obtained by fitting the data to a single-site binding model with a stoichiometry of 1. ITC experiments were performed at 20 °C with a MicroCal ITC200 instrument, and all data were analysed with the software implemented in Origin (version 7) ([Scott et al., 2015]).
Chain of PLK1 PBD (P53350 345-603): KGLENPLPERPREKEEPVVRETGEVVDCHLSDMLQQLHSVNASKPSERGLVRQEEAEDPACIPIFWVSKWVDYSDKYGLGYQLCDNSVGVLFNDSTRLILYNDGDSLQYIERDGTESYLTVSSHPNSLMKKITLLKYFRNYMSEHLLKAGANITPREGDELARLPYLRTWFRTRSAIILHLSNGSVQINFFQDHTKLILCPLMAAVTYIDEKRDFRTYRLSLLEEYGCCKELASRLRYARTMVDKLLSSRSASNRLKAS

Read-outs that look alike come from different tables or passages of the source.

T1 sequence (P53350 whole entry): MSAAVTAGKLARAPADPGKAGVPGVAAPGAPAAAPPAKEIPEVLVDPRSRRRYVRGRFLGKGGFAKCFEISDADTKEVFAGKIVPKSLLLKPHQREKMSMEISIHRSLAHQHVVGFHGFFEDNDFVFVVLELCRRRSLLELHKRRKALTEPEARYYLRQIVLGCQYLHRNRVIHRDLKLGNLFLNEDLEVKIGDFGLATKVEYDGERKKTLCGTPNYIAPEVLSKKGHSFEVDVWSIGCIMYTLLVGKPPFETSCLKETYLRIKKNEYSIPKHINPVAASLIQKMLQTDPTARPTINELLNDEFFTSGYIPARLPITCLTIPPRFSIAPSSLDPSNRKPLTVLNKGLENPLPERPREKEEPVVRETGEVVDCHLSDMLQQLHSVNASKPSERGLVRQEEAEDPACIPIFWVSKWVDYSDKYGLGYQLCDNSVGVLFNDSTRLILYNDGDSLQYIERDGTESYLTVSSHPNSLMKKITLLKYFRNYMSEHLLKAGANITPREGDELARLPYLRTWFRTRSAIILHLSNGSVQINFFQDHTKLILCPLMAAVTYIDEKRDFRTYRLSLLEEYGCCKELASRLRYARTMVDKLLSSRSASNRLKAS

As for `O=C(O)CCc1ccc(-c2ccc(Br)cc2)n1-c1ccccc1C(F)(F)F` [Poloppin], the “concentration at which cellular PLK1 is stabilized (ITDRF-CeTSA)” value at PLK1 (cell lysates at a constant 67°C) was more than 40 µM. In addition, the “thermal stability of PLK1 protein (CeTSA)” value at PLK1 (fixed dose of 1 mM, HeLa cell lysates, compared with control) is “increased thermal stability”. For the same molecule, the EC50 in the assay with human cell lines was 29.9 ± 1.12 µM; in the assay with Panc 05.04 (read-out: EC50, % survival, Panc 05.04, All Stars control siRNA, 72 h), 23.8 ± 1.08 µM; in the assay with Panc 05.04 (read-out: EC50, % survival, Panc 05.04, siMET, 72 h), 11.6 ± 1.07 µM. The GI50 in the assay on HCT116 wt came to 11.1 µM. Besides, the affinity at PLK1 PBD, expressed as Kd, was 29.5 µM.

Source of the values: PMC5563081, “Modulating Protein-Protein Interactions of the Mitotic Polo-like Kinases to Target Mutant KRAS” (Cell Chemical Biology, 2017).
